Test results from ChEMBL document CHEMBL5537192, “Specific Inhibitors of Mitochondrial Deacylase Sirtuin 4 Endowed with Cellular Activity” (J Med Chem, 2024).

Columns and labels:
[1] = target: T1, NAD-dependent protein lipoamidase sirtuin-4, mitochondrial (Homo sapiens, UniProt Q9Y6E7); assay: Inhibition of N-terminal 6His-tagged human Sirt4 (25 to 314 residues) expressed in Escherichia coli CodonPlus(DE3) cells using HMG-FdL as substrate at 100 uM preincubated for 20 mins followed by NAM addition and measured after 45 mins in presence of NAD+ by fluorescence based assay relative to control
T1 sequence (Q9Y6E7 whole entry): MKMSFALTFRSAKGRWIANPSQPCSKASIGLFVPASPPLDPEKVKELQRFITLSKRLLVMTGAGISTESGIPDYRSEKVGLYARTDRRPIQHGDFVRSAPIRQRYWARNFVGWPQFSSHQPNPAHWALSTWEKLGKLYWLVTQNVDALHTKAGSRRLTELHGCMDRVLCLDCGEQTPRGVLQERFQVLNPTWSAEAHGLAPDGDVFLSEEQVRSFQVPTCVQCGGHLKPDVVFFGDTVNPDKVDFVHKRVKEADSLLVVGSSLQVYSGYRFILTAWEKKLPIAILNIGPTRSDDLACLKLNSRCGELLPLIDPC

[2] = tested on: C2C12; assay: Cytotoxicity against mouse C2C12 cells assessed as effect o cell viability at 1 to 100 uM incubated for 4 hrs by trypan blue reagent based phase contrast microscopic analysis; type: toxicity; conditions: c2c12, 4 h, dose 1-100 µM

IC50 [1] [µM]	SMILES	Activity [2]
~126	NC(=O)C1=CN([C@@H]2O[C@H](COP(=O)(O)OP(=O)(O)OC[C@H]3O[C@@H](n4cnc5c(N)ncnc54)[C@H](O)[C@@H]3O)[C@@H](O)[C@H]2O)C=CC1	
	CCCc1cc(=O)[nH]c(SCC(=O)Nc2ccc(S(=O)(=O)c3ccc([N+](=O)[O-])cc3)cc2)n1	Non-Toxic
